This passage reports Km results from US6723525B2, “Methods and compositions for screening modulators of lipid kinases” (Warner-Lambert Company, priority 2000, dated 2004).

For orientation: Km means the concentration of substrate that gives half-maximal velocity.

For assay [1], the target named is T1, human sphingosine kinase (huSPHK1) (Homo sapiens, UniProt Q9NYA1).
T1 construct: made in house; host or cells: CHO and/or COS-7 cells, transiently transfected; raw cell extract after thaw/freeze cycles
Nature of the assay: Sphingosine kinase activity scintillation proximity assay (SPA) with extracts of transfected CHO or COS-7 cells. The assay is classed as biochemical. The settings on record: FIG. 4B; read-out: ATP KM. (SPA uses beads or plates that emit light when radiolabelled molecules are held near them.)
Method: CHO and/or COS-7 cells were cultured in 90% Ham F12 medium, 10% foetal bovine serum, Gentamycin, in T-175 tissue culture flasks in air with 5% CO2 atmosphere at 37° C. CHO and/or COS-7 cells were transiently transfected with the vector pcDNA3 alone or vector containing the human sphingosine kinase cDNA, using the Qiagen reagent Superfect. They were seeded 5×10^6 per 175 cm^2 flask. After 24 hrs, cells were transfected with 10 μg of cDNA mixed with 20 μl Superfect for 6 hrs, washed, and cultured for 2 days in complete Ham medium. They were then trypsinized, centrifuged down at 1500 rpm for 10 min, and resuspended in assay buffer. They underwent 3 thaw/freeze cycles and protein concentration were estimated using the Bradfaord technique (Biorad kit). The protein concentration was adjusted to 1 μg/μl, and aliquots were kept frozen at −20° C. […]
100 μL/well of SPA beads emulsion (corresponding to 0.5 mg/well beads). The plate is covered with a transparent Topseal (Packard), stirred for 1 hour at 800 rpm and counted on a Wallac Trilux. […]
Taking advantage of the property of these supports, a two-steps assay was set up (see FIG. 1). […] The beads settle down for an hour, and the plate is read on a scintillation counter.
Optimization of assay conditions need also the determination of adequate quantities of ATP, sphingosine, and enzyme concentration. […]

Assay [2] addresses sphingosine kinases (SPHKs) (Homo sapiens, UniProt Q9NYA1). Particulars: cited from earlier work.

Sequence of sphingosine kinases (SPHKs) (Q9NYA1 whole entry): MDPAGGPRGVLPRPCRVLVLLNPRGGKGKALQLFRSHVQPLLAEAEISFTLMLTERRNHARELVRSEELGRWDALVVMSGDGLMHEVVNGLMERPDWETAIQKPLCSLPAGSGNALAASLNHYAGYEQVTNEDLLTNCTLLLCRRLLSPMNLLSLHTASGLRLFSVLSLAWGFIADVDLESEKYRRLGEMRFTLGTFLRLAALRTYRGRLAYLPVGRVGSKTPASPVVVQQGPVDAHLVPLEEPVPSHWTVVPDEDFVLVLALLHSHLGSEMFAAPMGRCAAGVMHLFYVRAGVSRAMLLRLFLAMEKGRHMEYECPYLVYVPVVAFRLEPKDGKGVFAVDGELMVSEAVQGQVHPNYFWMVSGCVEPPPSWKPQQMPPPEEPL
T1 sequence (Q9NYA1 whole entry): as above

With `Nc1ncnc2c1ncn2[C@@H]1O[C@H](COP(=O)(O)OP(=O)(O)OP(=O)(O)O)[C@@H](O)[C@H]1O` [ATP], the Michaelis-Menten constant (Km) in assay [1] was around 30 µM.

Take `CCCCCCCCCCCCC/C=C/[C@@H](O)[C@@H](N)CO` [Sphingosine]: the Km in assay [2] was 5 µM.
